Literature values in US20090285811A1, “ANTI-INFLAMMATORY AND IMMUNOSUPPRESSIVE GLUCOCORTICOID STEROIDS” (Auspex Pharmaceuticals, Inc., priority 2008, published 2009).
Read-outs that look alike come from different tables or passages of the source.

Key:
glucocorticoid receptor = target: T1, glucocorticoid receptor (Homo sapiens, UniProt P04150); details: primary human CYP3A metabolites of budesonide
T1 sequence (P04150 1-777): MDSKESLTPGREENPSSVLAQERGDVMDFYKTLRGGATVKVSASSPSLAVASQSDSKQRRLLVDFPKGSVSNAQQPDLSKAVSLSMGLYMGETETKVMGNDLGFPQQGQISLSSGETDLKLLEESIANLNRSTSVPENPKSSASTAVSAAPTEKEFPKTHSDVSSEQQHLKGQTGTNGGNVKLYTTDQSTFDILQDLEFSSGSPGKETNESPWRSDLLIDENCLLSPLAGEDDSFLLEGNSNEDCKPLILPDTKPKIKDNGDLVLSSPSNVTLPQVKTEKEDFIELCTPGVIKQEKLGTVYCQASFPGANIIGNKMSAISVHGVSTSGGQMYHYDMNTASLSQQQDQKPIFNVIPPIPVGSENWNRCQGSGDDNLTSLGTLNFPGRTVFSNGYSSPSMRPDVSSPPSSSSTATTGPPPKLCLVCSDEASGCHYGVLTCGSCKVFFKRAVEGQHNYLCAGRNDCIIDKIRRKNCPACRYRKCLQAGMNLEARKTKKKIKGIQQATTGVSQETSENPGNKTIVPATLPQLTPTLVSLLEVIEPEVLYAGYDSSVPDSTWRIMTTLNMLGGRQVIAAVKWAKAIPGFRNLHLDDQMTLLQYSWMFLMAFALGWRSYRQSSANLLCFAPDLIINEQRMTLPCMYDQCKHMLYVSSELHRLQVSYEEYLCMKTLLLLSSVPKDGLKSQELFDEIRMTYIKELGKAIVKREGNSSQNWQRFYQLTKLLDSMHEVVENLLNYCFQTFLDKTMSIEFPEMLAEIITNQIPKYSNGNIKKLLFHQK

systemic availability (after oral administration)	elimination half-life (in vivo)	systemic availability (intranasal administration)	clearance (non-oral routes of administration)	clearance (oral administration) [mL/min/kg]	Compound	potency compared with budesonide (glucocorticoid receptor)
–	–	–	–	–	CCCC1O[C@@H]2C[C@H]3[C@@H]4C[C@@H](O)C5=CC(=O)C=C[C@]5(C)[C@H]4[C@@H](O)C[C@]3(C)[C@]2(C(=O)CO)O1 (stereo partly drawn) [6β-hydroxybudesonide]	significantly less potent
–	–	–	–	–	C[C@]12C=CC(=O)C=C1CC[C@@H]1[C@@H]2[C@@H](O)C[C@@]2(C)[C@H]1C[C@@H](O)[C@]2(O)C(=O)CO [16α-hydroxyprednisolone]	significantly less potent
approximately 12%	approximately 2 hours	about 20%	about 20 mL/min/Kg	~40	CCCC1O[C@@H]2C[C@H]3[C@@H]4CCC5=CC(=O)C=C[C@]5(C)[C@H]4[C@@H](O)C[C@]3(C)[C@]2(C(=O)CO)O1 (stereo partly drawn) [Budesonide, 16,17-(butylidenebis(oxy))-11,21-dihydroxy-, (11-β,16-α)-pregna-1,4-diene-3,20-dione]	–
